Source: US20240115654A1, “INTRAVENOUS ADMINISTRATION OF ENGINEERED ANTIMICROBIAL AMPHIPHILIC PEPTIDES” (priority 2021, published 2024)
In brackets after ≈: the same amount, converted by molar mass. Peptide text beside a SMILES is read from it.

Legend:
[1] = system: P. aeruginosa strains (PAO1 and 2 clinical isolates); experiment: Determination of bacterial resistance, passage at 0.5×MIC with daily MIC; assay type: cell-based, Pseudomonas aeruginosa; settings: three P. aeruginosa strains, exposure at 0.5×MIC, FIG. 20
From the text: Each antibiotic was compared for their propensity to select for bacterial resistance phenotypes in vitro.

S. aureus = experiment: Periprosthetic joint infection model, implant biofilm CFU; assay type: in vivo; settings: mouse, intraperitoneal; SEQ ID NO:1 0.1-10 mg/kg; compared to untreated control mice, FIG. 16
Description: Periprosthetic joint infection was modeled in a mouse by placing an intra-articular K-wire through the medullary canal of the proximal femur followed by intra-articular inoculation with S. aureus. Animals were treated systemically with an intraperitoneal delivery of cefazolin, rifampin, or the exemplary peptide of SEQ ID NO: 1. Intraperitoneal delivery was chosen due to technical difficulties associated with intravenous delivery. Implant sonication and proximal femur homogenate were used to quantify viable bacteria.

[2] = system: S. aureus strain SH1000 biofilms; experiment: In vitro biofilm disruption on stainless steel rods; assay type: cell-based, Staphylococcus aureus; settings: S. aureus SH1000, 10×MIC, up to 24 hours, FIG. 15
From the text: FIG. 15 depicts the effect of administration of SEQ ID NO:1 and cefazolin on biofilm maintenance. […] SEQ ID NO:1 eliminated mature implant biofilms on a model strain of S. aureus, SH1000.

[3] = system: Acinetobacter baumannii ATCC 19606 (non-MDR); assay type: cell-based; settings: ATCC 19606
Description: (§1) Each peptide was formulated in PBS buffer prior to testing. Peptides of SEQ ID NO:5 and SEQ ID NO:8 were brought up in 100% DMSO with 0.002% polysorbate-80 at 1.28 mg/mL (40× the highest final test concentration of 32 mcg/mL). Final test concentration of DMSO was 2.5% in the assay at the first dilution for those two compounds.
(§2) Mueller Hinton II broth (MHB II; BD; Lot Nos. 6258541 and 7143896) was used for MIC testing of aerobic organisms. 0.002% polysorbate 80 (P80) was added to the test medium.
(§3) MIC values were determined using a broth microdilution procedure described by CLSI (1, 3). Automated liquid handlers (Multidrop 384, Labsystems, Helsinki, Finland; Biomek 2000 and Biomek FX, Beckman Coulter, Fullerton CA) were used to conduct serial dilutions and liquid transfers.
(§4) To prepare the drug mother plates, which would provide the serial peptide dilutions for the replicate daughter plates, the wells of columns 2-12 of standard 96-well microdilution plates (Costar 3795) were filled with 150 μl of the designated diluent for each row of peptide. The test articles and comparator compounds (300 μl at 40× the highest concentration to be tested) were dispensed into the appropriate wells in column 1. The Biomek 2000 was then used to make 2-fold serial dilutions in the mother plates from column 1 through column 11. The wells of Column 12 contained no drug and served as the organism growth control wells for the assay.
(§5) The daughter plates were loaded with 185 μL per well of MHB II using the Multidrop 384. The daughter plates were completed on the Biomek FX instrument which transferred 5 uL of peptide solution from each well of a mother plate to the corresponding well of each daughter plate in a single step. A standardized inoculum of each test organism was prepared per CLSI methods. The inoculum for each organism was dispensed into sterile reservoirs divided by length (Beckman Coulter), and the Biomek 2000 was used to inoculate the plates. Daughter plates were placed on the Biomek 2000 work surface in reverse orientation so that inoculation took place from low to high drug concentration. The plates were then inoculated with 10 μL of the inoculum resulting in a final cell density of approximately 5×10^5 CFU/mL, per well.
(§6) Plates were stacked 3-4 high, covered with a lid on the top plate, placed in plastic bags, and incubated at 35° C. for 16 to 20 hrs. Following incubation, the microplates were removed from the incubator and viewed from the bottom using a plate viewer. […] The MIC was read and recorded as the lowest concentration of peptide that inhibited visible growth of the organism.

[4] = system: Acinetobacter baumannii ATCC BAA-1797 (MDR); assay type: cell-based; settings: ATCC BAA-1797
Description: as §1, §2, §3, §4, §5, §6

[5] = system: Enterococcus faecalis ATCC 29212 (VSE; QC); assay type: cell-based; settings: ATCC 29212
Description: as §1, §2, §3, §4, §5, §6

[6] = system: Enterococcus faecalis ATCC 700802 (V583 VRE); assay type: cell-based; settings: ATCC 700802
Description: as §1, §2, §3, §4, §5, §6

[7] = system: Enterococcus faecium ATCC 51559 (VRE); assay type: cell-based; settings: ATCC 51559
Description: as §1, §2, §3, §4, §5, §6

[8] = system: Escherichia coli ATCC 25922 (QC); assay type: cell-based; settings: ATCC 25922
Description: as §1, §2, §3, §4, §5, §6

[9] = system: Escherichia coli ATCC 35218 (ESBL); assay type: cell-based; settings: ATCC 35218
Description: as §1, §2, §3, §4, §5, §6

[10] = system: Escherichia coli ATCC BAA-2471 (NDM-1); assay type: cell-based; settings: ATCC BAA-2471
Description: as §1, §2, §3, §4, §5, §6

[11] = system: Klebsiella pneumoniae ATCC BAA-1705 (KPC); assay type: cell-based; settings: ATCC BAA-1705
Description: as §1, §2, §3, §4, §5, §6

[12] = system: Pseudomonas aeruginosa ATCC 27853 (non-MDR; QC); assay type: cell-based; settings: ATCC 27853
Description: as §1, §2, §3, §4, §5, §6

[13] = system: Pseudomonas aeruginosa ATCC BAA-2109 (MDR); assay type: cell-based; settings: ATCC BAA-2109
Description: as §1, §2, §3, §4, §5, §6

[14] = system: Staphylococcus aureus ATCC 29213 (MSSA; QC); assay type: cell-based; settings: ATCC 29213
Description: as §1, §2, §3, §4, §5, §6

[15] = system: Staphylococcus aureus ATCC 43300 (MRSA); assay type: cell-based; settings: ATCC 43300
Description: as §1, §2, §3, §4, §5, §6

[16] = system: Staphylococcus aureus NRS382 (USA100; HA-MRSA); assay type: cell-based; settings: USA100
Description: as §1, §2, §3, §4, §5, §6

[17] = system: Streptococcus pneumoniae ATCC 49619 (QC); assay type: cell-based; settings: ATCC 49619
Description: as §1, §2, §3, §4, §5, §6

[18] = system: Streptococcus pyogenes ATCC 49399; assay type: cell-based; settings: ATCC 49399
Description: as §1, §2, §3, §4, §5, §6

For LL-37 [LL37], the “time to development of resistance (fold MIC >10)” value [1] was ≤ 9 days.
`CO[C@H]1/C=C/O[C@@]2(C)Oc3c(C)c(O)c4c(O)c(c(/C=N/N5CCN(C)CC5)c(O)c4c3C2=O)NC(=O)/C(C)=C\C=C\[C@H](C)[C@H](O)[C@@H](C)[C@@H](O)[C@@H](C)[C@H](OC(C)=O)[C@@H]1C` [Rifampin] was tested, and the “reduction of implant biofilm CFU burden (sonicate culture)” value (S. aureus) was “comparable reduction in biofilms sonicate as compared to SEQ ID NO:1” and the “time to development of resistance (fold MIC >10)” value [1] was ≤ 3 days.
For `Cc1nnc(SCC2=C(C(=O)O)N3C(=O)[C@@H](NC(=O)Cn4cnnn4)[C@H]3SC2)s1` [cefazolin], the “reduction of mature biofilm on stainless steel rods” value [2] was “did not achieve a three-log reduction” and the “reduction of implant biofilm CFU burden (sonicate culture)” value (S. aureus) was “one log reduction in viable bacteria”.
`CC(C)[C@H](N)C(=O)N[C@H](C(=O)N[C@@H](CCCNC(=N)N)C(=O)N[C@H](C(=O)N[C@H](C(=O)N[C@@H](CCCNC(=N)N)C(=O)N[C@@H](CCCNC(=N)N)C(=O)N[C@H](C(=O)N[C@H](C(=O)N[C@@H](CCCNC(=N)N)C(=O)N[C@H](C(=O)N[C@H](C(=O)N[C@@H](CCCNC(=N)N)C(=O)N[C@@H](CCCNC(=N)N)C(=O)O)C(C)C)C(C)C)C(C)C)C(C)C)C(C)C)C(C)C)C(C)C` [SEQ ID NO: 7] (H-VVRVVRRVVRVVRR-OH; N-terminus and C-terminus assumed) was tested, and the MIC [3] was >32 µg/mL, the MIC [4] was >32 µg/mL and the MIC [5] was >32 µg/mL. For the same molecule, the MIC [6] was >32 µg/mL, the MIC [7] was 16 µg/mL (≈ 9.15 µM) and the MIC [8] was >32 µg/mL. For the same molecule, the MIC [9] was 32 µg/mL (≈ 18.3 µM), the MIC [10] was 16 µg/mL (≈ 9.15 µM) and the MIC [11] was >32 µg/mL. The MIC [12] was >32 µg/mL, the MIC [13] was >32 µg/mL and the MIC [14] was >32 µg/mL. For the same molecule, the MIC [15] was >32 µg/mL, the MIC [16] was >32 µg/mL and the MIC [17] was >32 µg/mL. The MIC [18] was 16 µg/mL (≈ 9.15 µM).
